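48-hour exposure; five concentrations; linearly interpolated endpoints. TGI denotes the concentration required for complete inhibition of growth.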
Tests used:
Experiment in all cases: inhibition of tumour cell growth, NCI panel, 48 h
BT-549 breast = tested on: BT-549 breast
COLO 205 colon = tested on: COLO 205 colon
HCT-15 colon = tested on: HCT-15 colon
HOP-62 NSCLC = tested on: HOP-62 NSCLC
HT29 colon = tested on: HT29 colon
K-562 leukemia = tested on: K-562 leukemia
LOX IMVI melanoma = tested on: LOX IMVI melanoma
M14 melanoma = tested on: M14 melanoma
MALME-3M melanoma = tested on: MALME-3M melanoma
MDA-MB-435 = tested on: MDA-MB-435
MDA-N = tested on: MDA-N
OVCAR-4 ovarian = tested on: OVCAR-4 ovarian
OVCAR-8 ovarian = tested on: OVCAR-8 ovarian
PC-3 prostate = tested on: PC-3 prostate
SK-MEL-2 melanoma = tested on: SK-MEL-2 melanoma
SK-OV-3 ovarian = tested on: SK-OV-3 ovarian
SN12C renal = tested on: SN12C renal
SR leukemia = tested on: SR leukemia
UO-31 renal = tested on: UO-31 renal
HCC-2998 colon = tested on: HCC-2998 colon

Measured: TGI

Cc1ccc(S(=O)(=O)OC2=C/C(=N\c3onc(C)c3C)c3ccccc3C2=O)cc1
26 µM: SK-MEL-2 melanoma
37.4 µM: SN12C renal
36.8 µM: OVCAR-8 ovarian
18.9 µM: K-562 leukemia
29.9 µM: OVCAR-4 ovarian
40.1 µM: PC-3 prostate
71.9 µM: BT-549 breast
37.9 µM: LOX IMVI melanoma
54.8 µM: HOP-62 NSCLC
30.7 µM: UO-31 renal
43.3 µM: MALME-3M melanoma
31.8 µM: MDA-MB-435
> 100 µM: COLO 205 colon | HCT-15 colon | HT29 colon | M14 melanoma | MDA-N | SK-OV-3 ovarian | SR leukemia

CCCCCCCCCCCCn1c(=O)cc(NCCCC)c2cc3c(NCCCC)cc(=O)n(CCCCCCCCCCCC)c3nc21
> 100 µM: BT-549 breast | COLO 205 colon | HCC-2998 colon | HCT-15 colon | HOP-62 NSCLC | K-562 leukemia | M14 melanoma | MALME-3M melanoma | MDA-MB-435 | MDA-N | OVCAR-4 ovarian | PC-3 prostate | SK-MEL-2 melanoma | SK-OV-3 ovarian | SN12C renal | UO-31 renal

COC(=O)c1ccc(N=NN(C)COc2ccc(C#N)cc2)cc1
> 100 µM: BT-549 breast | COLO 205 colon | HCC-2998 colon | HCT-15 colon | HOP-62 NSCLC | HT29 colon | K-562 leukemia | LOX IMVI melanoma | M14 melanoma | MALME-3M melanoma | MDA-MB-435 | MDA-N | OVCAR-4 ovarian | OVCAR-8 ovarian | PC-3 prostate | SK-MEL-2 melanoma | SK-OV-3 ovarian | SN12C renal | UO-31 renal

O=CN1CCN(C(=O)c2cc(Cl)cc(Cl)c2)C1=S
29.2 µM: M14 melanoma
31.3 µM: BT-549 breast
54.5 µM: HT29 colon
31 µM: SN12C renal
32.4 µM: SK-OV-3 ovarian
35.4 µM: MDA-N
28.1 µM: MDA-MB-435
29.7 µM: HOP-62 NSCLC
33.6 µM: OVCAR-8 ovarian
22.3 µM: LOX IMVI melanoma
35.8 µM: PC-3 prostate
33.4 µM: OVCAR-4 ovarian
33 µM: SK-MEL-2 melanoma
35.2 µM: HCT-15 colon
97.5 µM: K-562 leukemia
31.9 µM: HCC-2998 colon
33.8 µM: COLO 205 colon
20.7 µM: MALME-3M melanoma

COC(=O)CCC(NC(=O)C(C)NC(=O)COC1C(O)C(OC(=O)CCNc2c3ccccc3nc3cccc([N+](=O)[O-])c23)OC(OCc2ccccc2)C1NC(C)=O)C(N)=O (centres undefined)
6.04 µM: MDA-N
5.57 µM: SK-MEL-2 melanoma
5.8 µM: HCC-2998 colon
> 10 µM: BT-549 breast | HCT-15 colon | HOP-62 NSCLC | HT29 colon | K-562 leukemia | LOX IMVI melanoma | M14 melanoma | MDA-MB-435 | OVCAR-8 ovarian | PC-3 prostate | SK-OV-3 ovarian | SN12C renal | UO-31 renal
7.06 µM: MALME-3M melanoma

C=C(C)CC1=C(OCC)C(OC)(OCC)C1=O (centres undefined)
> 100 µM: BT-549 breast | COLO 205 colon | HCT-15 colon | HOP-62 NSCLC | HT29 colon | LOX IMVI melanoma | M14 melanoma | MDA-MB-435 | MDA-N | OVCAR-4 ovarian | OVCAR-8 ovarian | PC-3 prostate | SK-MEL-2 melanoma | SK-OV-3 ovarian | SN12C renal | UO-31 renal

CCCCOC(=O)C1CN2C=CC=NC2=NC1(C(F)(F)F)C(F)(F)F (centres undefined)
> 100 µM: BT-549 breast | COLO 205 colon | HCC-2998 colon | HCT-15 colon | HOP-62 NSCLC | HT29 colon | K-562 leukemia | LOX IMVI melanoma | M14 melanoma | MALME-3M melanoma | MDA-MB-435 | MDA-N | OVCAR-4 ovarian | OVCAR-8 ovarian | PC-3 prostate | SK-MEL-2 melanoma | SK-OV-3 ovarian | SN12C renal | UO-31 renal

COC(=O)C[C@@H]1C(C)(C)[C@@H]2O[C@@]34C[C@@H]2C(=O)[C@]1(C)[C@H]3CC[C@@]1(C)[C@H](c2ccoc2)OC(=O)C[C@]14O
> 100 µM: BT-549 breast | COLO 205 colon | HCT-15 colon | HOP-62 NSCLC | HT29 colon | K-562 leukemia | LOX IMVI melanoma | M14 melanoma | MALME-3M melanoma | MDA-MB-435 | MDA-N | OVCAR-4 ovarian | OVCAR-8 ovarian | PC-3 prostate | SK-MEL-2 melanoma | SK-OV-3 ovarian | SN12C renal | SR leukemia

OCC1OC(Oc2cc(O)cc(/C=C\c3ccc(O)cc3)c2)C(O)C(O)C1O (centres undefined)
> 100 µM: BT-549 breast | HCT-15 colon | HOP-62 NSCLC | HT29 colon | K-562 leukemia | LOX IMVI melanoma | MDA-MB-435 | MDA-N | OVCAR-4 ovarian | OVCAR-8 ovarian | PC-3 prostate | SK-MEL-2 melanoma | SK-OV-3 ovarian | SN12C renal | SR leukemia | UO-31 renal

COc1ccc(-c2c(C#N)c(-c3ccc(C)cc3)n(NS(=O)(=O)c3ccccc3)c(=O)c2C#N)cc1
> 100 µM: BT-549 breast | COLO 205 colon | HCC-2998 colon | HCT-15 colon | HOP-62 NSCLC | HT29 colon | K-562 leukemia | LOX IMVI melanoma | M14 melanoma | MALME-3M melanoma | MDA-MB-435 | MDA-N | OVCAR-4 ovarian | OVCAR-8 ovarian | PC-3 prostate | SK-MEL-2 melanoma | SK-OV-3 ovarian | SN12C renal

Cn1c(=O)[nH]c2[nH]c3ccccc3c2c1=O
> 100 µM: BT-549 breast | COLO 205 colon | HCC-2998 colon | HCT-15 colon | HOP-62 NSCLC | HT29 colon | K-562 leukemia | LOX IMVI melanoma | M14 melanoma | MALME-3M melanoma | MDA-MB-435 | MDA-N | OVCAR-8 ovarian | SK-MEL-2 melanoma | SK-OV-3 ovarian | SN12C renal | SR leukemia | UO-31 renal
